Measured values as given in ChEMBL document CHEMBL4406824, “Phenolic N-monosubstituted carbamates: Antitubercular and toxicity evaluation of multi-targeting compounds” (Eur J Med Chem, 2019).
≈ marks a conversion by molar mass, not a printed value.

System: Mycobacterium tuberculosis
Assay: Antimycobacterial activity against multi drug resistant Mycobacterium tuberculosis 9449/2006 after 14 days
Assay type: functional
Conditions: 9449/2006, 336 h

Point of comparison: `O=C(NC12CC3CC(CC(C3)C1)C2)Oc1ccc(Cl)cc1C(=O)Nc1ccc(C(F)(F)F)cc1`, MIC 1 µM (≈ 0.493 µg/mL). Against it:
- O=C(Nc1ccccc1)Oc1ccc(Cl)cc1C(=O)Nc1ccc(C(F)(F)F)cc1 — the same, 1 µM (≈ 0.435 µg/mL)
- O=C(NCCc1ccccc1)Oc1ccc(Cl)cc1C(=O)Nc1ccc(C(F)(F)F)cc1 — 2-fold higher, 2 µM (≈ 0.926 µg/mL)
- O=C(NC1CCCCC1)Oc1ccc(Cl)cc1C(=O)Nc1ccc(C(F)(F)F)cc1 — 2-fold lower, 0.5 µM (≈ 0.22 µg/mL)

System: Mycobacterium tuberculosis
Assay: Antimycobacterial activity against multi drug resistant Mycobacterium tuberculosis 8666/2010 after 14 days
Assay type: functional
Conditions: 8666/2010, 336 h

Point of comparison: `O=C(NCCc1ccccc1)Oc1ccc(Cl)cc1C(=O)Nc1ccc(C(F)(F)F)cc1`, MIC 2 µM (≈ 0.926 µg/mL). Against it:
- O=C(Nc1ccccc1)Oc1ccc(Cl)cc1C(=O)Nc1ccc(C(F)(F)F)cc1 — 4-fold lower, 0.5 µM (≈ 0.217 µg/mL)
- O=C(NC12CC3CC(CC(C3)C1)C2)Oc1ccc(Cl)cc1C(=O)Nc1ccc(C(F)(F)F)cc1 — 4-fold lower, 0.5 µM (≈ 0.246 µg/mL)
- O=C(NC1CCCCC1)Oc1ccc(Cl)cc1C(=O)Nc1ccc(C(F)(F)F)cc1 — 4-fold lower, 0.5 µM (≈ 0.22 µg/mL)

System: Mycobacterium tuberculosis
Assay: Antimycobacterial activity against multi drug resistant Mycobacterium tuberculosis 8666/2010 after 21 days
Assay type: functional
Conditions: 8666/2010, 504 h

Point of comparison: `O=C(NC1CCCCC1)Oc1ccc(Cl)cc1C(=O)Nc1ccc(C(F)(F)F)cc1`, MIC 1 µM (≈ 0.441 µg/mL). Against it:
- O=C(Nc1ccccc1)Oc1ccc(Cl)cc1C(=O)Nc1ccc(C(F)(F)F)cc1 — the same, 1 µM (≈ 0.435 µg/mL)
- O=C(NCCc1ccccc1)Oc1ccc(Cl)cc1C(=O)Nc1ccc(C(F)(F)F)cc1 — 2-fold higher, 2 µM (≈ 0.926 µg/mL)
- O=C(NC12CC3CC(CC(C3)C1)C2)Oc1ccc(Cl)cc1C(=O)Nc1ccc(C(F)(F)F)cc1 — the same, 1 µM (≈ 0.493 µg/mL)

System: Mycobacterium tuberculosis
Assay: Antimycobacterial activity against multi drug resistant Mycobacterium tuberculosis Praha 1 after 21 days
Assay type: functional
Conditions: Praha 1, 504 h

Point of comparison: `O=C(NCCc1ccccc1)Oc1ccc(Cl)cc1C(=O)Nc1ccc(C(F)(F)F)cc1`, MIC 1 µM (≈ 0.463 µg/mL). Against it:
- O=C(Nc1ccccc1)Oc1ccc(Cl)cc1C(=O)Nc1ccc(C(F)(F)F)cc1 — the same, 1 µM (≈ 0.435 µg/mL)
- O=C(NC12CC3CC(CC(C3)C1)C2)Oc1ccc(Cl)cc1C(=O)Nc1ccc(C(F)(F)F)cc1 — the same, 1 µM (≈ 0.493 µg/mL)
- O=C(NC1CCCCC1)Oc1ccc(Cl)cc1C(=O)Nc1ccc(C(F)(F)F)cc1 — the same, 1 µM (≈ 0.441 µg/mL)

System: Mycobacterium tuberculosis
Assay: Antimycobacterial activity against multi drug resistant Mycobacterium tuberculosis Praha 1 after 14 days
Assay type: functional
Conditions: Praha 1, 336 h

Point of comparison: `O=C(NC12CC3CC(CC(C3)C1)C2)Oc1ccc(Cl)cc1C(=O)Nc1ccc(C(F)(F)F)cc1`, MIC 0.5 µM (≈ 0.246 µg/mL). Against it:
- O=C(Nc1ccccc1)Oc1ccc(Cl)cc1C(=O)Nc1ccc(C(F)(F)F)cc1 — the same, 0.5 µM (≈ 0.217 µg/mL)
- O=C(NCCc1ccccc1)Oc1ccc(Cl)cc1C(=O)Nc1ccc(C(F)(F)F)cc1 — 2-fold higher, 1 µM (≈ 0.463 µg/mL)
- O=C(NC1CCCCC1)Oc1ccc(Cl)cc1C(=O)Nc1ccc(C(F)(F)F)cc1 — the same, 0.5 µM (≈ 0.22 µg/mL)

System: Mycobacterium tuberculosis
Assay: Antimycobacterial activity against multi drug resistant Mycobacterium tuberculosis 234/2005 after 14 days
Assay type: functional
Conditions: 234/2005, 336 h

Point of comparison: `O=C(NCCc1ccccc1)Oc1ccc(Cl)cc1C(=O)Nc1ccc(C(F)(F)F)cc1`, MIC 2 µM (≈ 0.926 µg/mL). Against it:
- O=C(Nc1ccccc1)Oc1ccc(Cl)cc1C(=O)Nc1ccc(C(F)(F)F)cc1 — 2-fold lower, 1 µM (≈ 0.435 µg/mL)
- O=C(NC12CC3CC(CC(C3)C1)C2)Oc1ccc(Cl)cc1C(=O)Nc1ccc(C(F)(F)F)cc1 — 2-fold lower, 1 µM (≈ 0.493 µg/mL)
- O=C(NC1CCCCC1)Oc1ccc(Cl)cc1C(=O)Nc1ccc(C(F)(F)F)cc1 — 4-fold lower, 0.5 µM (≈ 0.22 µg/mL)

System: Mycobacterium tuberculosis
Assay: Antimycobacterial activity against multi drug resistant Mycobacterium tuberculosis Praha 4 after 21 days
Assay type: functional
Conditions: Praha 4, 504 h

Point of comparison: `O=C(NC1CCCCC1)Oc1ccc(Cl)cc1C(=O)Nc1ccc(C(F)(F)F)cc1`, MIC 1 µM (≈ 0.441 µg/mL). Against it:
- O=C(Nc1ccccc1)Oc1ccc(Cl)cc1C(=O)Nc1ccc(C(F)(F)F)cc1 — the same, 1 µM (≈ 0.435 µg/mL)
- O=C(NCCc1ccccc1)Oc1ccc(Cl)cc1C(=O)Nc1ccc(C(F)(F)F)cc1 — 2-fold higher, 2 µM (≈ 0.926 µg/mL)
- O=C(NC12CC3CC(CC(C3)C1)C2)Oc1ccc(Cl)cc1C(=O)Nc1ccc(C(F)(F)F)cc1 — the same, 1 µM (≈ 0.493 µg/mL)

System: Mycobacterium tuberculosis
Assay: Antimycobacterial activity against multi drug resistant Mycobacterium tuberculosis 7357/1998 after 21 days
Assay type: functional
Conditions: 7357/1998, 504 h

Point of comparison: `O=C(Nc1ccccc1)Oc1ccc(Cl)cc1C(=O)Nc1ccc(C(F)(F)F)cc1`, MIC 1 µM (≈ 0.435 µg/mL). Against it:
- O=C(NCCc1ccccc1)Oc1ccc(Cl)cc1C(=O)Nc1ccc(C(F)(F)F)cc1 — 2-fold higher, 2 µM (≈ 0.926 µg/mL)
- O=C(NC12CC3CC(CC(C3)C1)C2)Oc1ccc(Cl)cc1C(=O)Nc1ccc(C(F)(F)F)cc1 — the same, 1 µM (≈ 0.493 µg/mL)
- O=C(NC1CCCCC1)Oc1ccc(Cl)cc1C(=O)Nc1ccc(C(F)(F)F)cc1 — the same, 1 µM (≈ 0.441 µg/mL)

System: Mycobacterium tuberculosis
Assay: Antimycobacterial activity against multi drug resistant Mycobacterium tuberculosis Praha 4 after 14 days
Assay type: functional
Conditions: Praha 4, 336 h

Point of comparison: `O=C(NC12CC3CC(CC(C3)C1)C2)Oc1ccc(Cl)cc1C(=O)Nc1ccc(C(F)(F)F)cc1`, MIC 0.5 µM (≈ 0.246 µg/mL). Against it:
- O=C(Nc1ccccc1)Oc1ccc(Cl)cc1C(=O)Nc1ccc(C(F)(F)F)cc1 — the same, 0.5 µM (≈ 0.217 µg/mL)
- O=C(NCCc1ccccc1)Oc1ccc(Cl)cc1C(=O)Nc1ccc(C(F)(F)F)cc1 — 4-fold higher, 2 µM (≈ 0.926 µg/mL)
- O=C(NC1CCCCC1)Oc1ccc(Cl)cc1C(=O)Nc1ccc(C(F)(F)F)cc1 — the same, 0.5 µM (≈ 0.22 µg/mL)

System: Mycobacterium tuberculosis
Assay: Antimycobacterial activity against multi drug resistant Mycobacterium tuberculosis 234/2005 after 21 days
Assay type: functional
Conditions: 234/2005, 504 h

Point of comparison: `O=C(Nc1ccccc1)Oc1ccc(Cl)cc1C(=O)Nc1ccc(C(F)(F)F)cc1`, MIC 1 µM (≈ 0.435 µg/mL). Against it:
- O=C(NCCc1ccccc1)Oc1ccc(Cl)cc1C(=O)Nc1ccc(C(F)(F)F)cc1 — 2-fold higher, 2 µM (≈ 0.926 µg/mL)
- O=C(NC12CC3CC(CC(C3)C1)C2)Oc1ccc(Cl)cc1C(=O)Nc1ccc(C(F)(F)F)cc1 — the same, 1 µM (≈ 0.493 µg/mL)
- O=C(NC1CCCCC1)Oc1ccc(Cl)cc1C(=O)Nc1ccc(C(F)(F)F)cc1 — the same, 1 µM (≈ 0.441 µg/mL)

System: Mycobacterium tuberculosis
Assay: Antimycobacterial activity against multi drug resistant Mycobacterium tuberculosis 9449/2006 after 21 days
Assay type: functional
Conditions: 9449/2006, 504 h

Point of comparison: `O=C(Nc1ccccc1)Oc1ccc(Cl)cc1C(=O)Nc1ccc(C(F)(F)F)cc1`, MIC 1 µM (≈ 0.435 µg/mL). Against it:
- O=C(NCCc1ccccc1)Oc1ccc(Cl)cc1C(=O)Nc1ccc(C(F)(F)F)cc1 — 2-fold higher, 2 µM (≈ 0.926 µg/mL)
- O=C(NC12CC3CC(CC(C3)C1)C2)Oc1ccc(Cl)cc1C(=O)Nc1ccc(C(F)(F)F)cc1 — the same, 1 µM (≈ 0.493 µg/mL)
- O=C(NC1CCCCC1)Oc1ccc(Cl)cc1C(=O)Nc1ccc(C(F)(F)F)cc1 — the same, 1 µM (≈ 0.441 µg/mL)

System: Mycobacterium tuberculosis
Assay: Antimycobacterial activity against multi drug resistant Mycobacterium tuberculosis 7357/1998 after 14 days
Assay type: functional
Conditions: 7357/1998, 336 h

Point of comparison: `O=C(Nc1ccccc1)Oc1ccc(Cl)cc1C(=O)Nc1ccc(C(F)(F)F)cc1`, MIC 0.5 µM (≈ 0.217 µg/mL). Against it:
- O=C(NCCc1ccccc1)Oc1ccc(Cl)cc1C(=O)Nc1ccc(C(F)(F)F)cc1 — 2-fold higher, 1 µM (≈ 0.463 µg/mL)
- O=C(NC12CC3CC(CC(C3)C1)C2)Oc1ccc(Cl)cc1C(=O)Nc1ccc(C(F)(F)F)cc1 — the same, 0.5 µM (≈ 0.246 µg/mL)
- O=C(NC1CCCCC1)Oc1ccc(Cl)cc1C(=O)Nc1ccc(C(F)(F)F)cc1 — the same, 0.5 µM (≈ 0.22 µg/mL)
